As usually defined, the IC50 is the point on the concentration scale where inhibition reaches its midpoint. In general, EC50 refers to the concentration that produces a half-maximal response.

This note sets out measurements from patent US11008572B2, “Methods and compositions for modulating splicing” (SKYHAWK THERAPEUTICS, INC., priority 2017, dated 2021).

Structures are written as SMILES. Read-outs that look alike come from different tables or passages of the source. Bounds are passed on as bounds.

What all share (type): cell-based
For one assay, the system named is A673 cells. In words: Dose-response cell proliferation, crystal violet assay, 72 h. To be noted: ratio of IC50 in NHDF cells to IC50 in A673 cells. The method, then: Small molecule splicing modulators were tested in a dose-response assay using A673 cells and NHDF cells.
A673 cells or NHDF cells were first plated in 96-well plastic tissue culture plates (10,000 cells per well). The cells were treated with vehicle alone (DMSO), or increasing concentrations of SMSM compounds for 72 h. Following treatment, cell proliferation was determined using a crystal violet assay. The relative cell proliferation at each concentration was determined.

Assay [1] deals with FOXM1^A2 mRNA and FOXM1^BC mRNA. In words: Splicing assay (FOXM1), qPCR of isoform mRNAs. To be noted: for IC50: FoxM1 BC mRNA decrease (exon included). Summed up:
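RT-qPCR read-out after 24 h compound exposure at 37° C., 0.2% DMSO, top dose 10 μM with 4-fold 8-point dilutions, 20,000 cells per well. Copy numbers from plasmid standard curves, PPIA-normalized, expressed as isoform ratio relative to DMSO.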

The next assay concerns A-673 cells. In words: Cell viability, crystal violet staining. The following applies: Homo sapiens. Summed up: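 Readout is absorbance at 570 nm of crystal violet, taken up in 0.1 M sodium citrate in 50% ethanol after staining with 0.5% dye in 25% methanol. Plates held 5×10^3 cells per well, and compounds were added one day after seeding for 72 hours. Data are relative to vehicle, mean±SE.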

Assay [2] can be described thus: Splicing (IC50), Example 22. The following applies: spliced gene and cells not stated. The method, then: A-673 cell viability […], splicing (IC50) and brain AUC/Plasma AUC of SMSMs were determined. As shown in the tables below SMSMs had high CNS exposure.
A further assay deals with IKBKAP^FL mRNA. In words: IKBKAP splicing assay, qPCR. The following applies: 24 hours of incubation. The method, then: (§1) Various cells lines were treated with the SMSMs described herein. RNA was then isolated, cDNA synthesized, qPCR performed and the levels of IKBKAP targets of the SMSMs were determined.
(§2) On the day of the experiment, a 96-well plate was seeded with the cell lines of interest. The cells were diluted with full growth media to a concentration of 2.0×10^5 cells/mL and 100 μL of cells were added to each well (20,000 cells per well). The cells were treated with a compound immediately after plating.
(§3) The compounds were then added to the cell plate using the HP compound dispenser. In the initial experiment, a top concentration of 10 μM and an 8 point 4-fold dilution scheme was used. The stock compounds were made at a concentration of 5 mM, and the DMSO concentration was set to 0.2%. DMSO was used to normalize all the compound-containing wells and the untreated cells.
(§4) The treated cells were incubated at 37° C. in a 5% CO2 incubator for the desired amount of time. Plates were placed in a plastic bag with a wet paper towel to prevent evaporation.
(§5) RNA was isolated using the Cells to CT kit (ThermoFisher, AM1728). The cells were washed once with 100 μL cold PBS. 50 μL of lysis buffer was added to each well/tube (49.5 μL lysis buffer+0.5 μL DNase I per well/tube). The lysis reaction was mixed and incubated at room temperature for 5 minutes. 5 μL of stop solution was added directly into each cell lysis reaction and mixed by pipetting up and down 5 times. The plates/tubes were incubated at room temperature for 2 minutes then placed on ice if the cDNA synthesis was to be performed immediately. Otherwise, the plates/tubes were stored at −80° C.
(§6) cDNA synthesis reactions were then performed. 40 μL RT master mix was added to PCR tubes or plate wells. 10 μL of RNA was added to each tube/well. The RT thermal cycler program was then run and tubes or plate wells were incubated at 37° C. for 1 hour, then at 95° C. for 5 minutes to deactivate the enzyme.
(§7) The qPCR was performed using a QuantStudio 6 instrument (ThermoFisher) and the following cycling conditions and according to the tables below. All samples and standards were analyzed in triplicate. Cycle 1: 2 minutes at 50° C. Cycle 2: 10 minutes at 95° C. Cycle 3 (repeat 40 times): 15 seconds at 95° C., 1 minute at 60° C.
(§8) The determined IKBKAP^FL and […] isoform quantities were then used to determine the IKBKAP^FL: IKBKAP^Δ20 ratio at increasing SMSM compound concentrations. The PPIA quantities were used in the normalization to account of cell proliferation effects of the compounds.
(§9) An assay to measure the IKBKAP^FL mRNA and IKBKAP^Δ20 mRNA simultaneously in cell wells was performed. The RNA values were measured relative to DMSO control and also included a housekeeping gene, PPIA to ensure data was consistent. The mRNA values were measured after 24 hours of incubation with the SMSM compounds.

Another assay deals with IKBKAP^Δ20 mRNA. In words: IKBKAP splicing assay, qPCR. To be noted: 24 hours of incubation. The method, then: as §1, §2, §3, §4, §5, §6, §7, §8, §9
For orientation: Real-time PCR tracks product formation cycle by cycle.

A further assay deals with SMN2^FL mRNA. In words: SMN2 splicing assay, real-time quantitative PCR, SMA type I patient cells (GM03813). To be noted: Homo sapiens, 24 hours. The method, then: (§10) Various cells lines were treated with the SMSMs described herein. RNA was then isolated, cDNA synthesized, qPCR performed and the levels of various mRNA targets of the SMSMs were determined. In some instances, RNA was isolated, cDNA synthesized, qPCR performed and the levels of mRNA isoforms in the various cell samples were determined.
(§11) SMA type I patient cells (GM03813 (Coriell))
as §2, §3, §4, §5, §6
(§12) The qPCR was performed using a QuantStudio 6instrument (ThermoFisher) and the following cycling conditions and according to the tables below. All samples and standards were analyzed in triplicate. Cycle 1: 2 minutes at 50° C. Cycle 2: 10 minutes at 95′C. Cycle 3 (repeat 40 times): 15 seconds at 95° C., 1 minute at 60° C.
(§13) The determined SMN2^Δ7 and SMN2^FL quantities were then be used to determine the SMN2^Δ7:SMN2^FL ratio at the various compound concentrations. The PPIA quantities were used in the normalization to account of cell proliferation effects of the compounds.
(§14) An assay to measure the SMN2^FL mRNA and SMN2^Δ7 mRNA simultaneously in cell wells was performed. The RNA values were measured relative to DMSO control and also included a housekeeping gene, PPIA to ensure data was consistent. The mRNA values were measured after 24 hours of incubation with the SMSM compounds.
(§15) Additionally, to monitor expression levels of SMN2 splice variant using real-time quantitative PCR, SMA type I patient cells (GM03813 (Coriell)) were plated at 5,000 cells/well in 200 μl Dulbecco's modified Eagle's medium (DMEM) with GlutaMAX and 10% fetal bovine serum (FBS) (Life Technologies, Inc.) in 96-well plates, and incubated for 6 hours in a cell culture incubator. Cells were then treated with SMSMs at different concentrations (0.5% DMSO) in duplicate for 24 hours. After removal of the supernatant, cells were lysed in Cells-To-Ct lysis buffer (Life Technologies, Inc.) according to the manufacturer's recommendations. The mRNA levels of SMN2 FL, SMN2 A7 were quantified using Taqman-based RT-qPCR and SMN2-specific primers and probes. The SMN2 forward and reverse primers were each used at a final concentration of 0.4 μM. The SMN2 probe was used at a final concentration of 0.1 μM. […]

Another assay concerns SMN2^Δ7 mRNA. Described as above. To be noted: Homo sapiens, 24 hours. The method, then:
as §10, §11, §2, §3, §4, §5, §6, §12, §13, §14, §15

[3] abbreviates: 24 h, 0.1-1000 nM, 24 hours, read-out: Splice IC50 (nM), FoxM1 BC mRNA decrease (exon included).
Setting [4] is: FoxM1 A mRNA increase (exon excluded), 0.1-1000 nM, 24 hours, read-out: Splice EC50 (nM), FoxM1 A mRNA increase (exon excluded).
[5] abbreviates: A673, cell viability, read-out: A-673 IC50 (nM), Cell viability.

As to `CC(/C=C/C(=O)NO)=C\[C@@H](C)C(=O)c1ccc(N(C)C)cc1` [Trichostatin A], in the assay with A673 cells, the “Ratio NHDF/A673 IC50” value was at most 10.

In the case of `CN(c1ccc(-c2cc(F)c(-c3ccn(C)c(=O)c3)cc2O)nn1)[C@H]1C[C@]2(C)CC[C@](C)(C1)N2` [compound 169, 4-(4-(6-(((1R,3s,5S)-1,5-dimethyl-8-azabicyclo[3.2.1]octan-3-yl)(methyl)amino)pyridazin-3-yl)-2-fluoro-5-hydroxyphenyl)-1-methylpyridin-2(1H)-one], the IC50 is under 10 nM in assay [1] (read-out: Splice IC50 (nM) FoxM1 BC mRNA decrease (exon included)); under 10 nM with A-673 cells (A673, cell viability, read-out: A-673 IC50 (nM) Cell viability); at most 5 nM with A-673 cells (A673, read-out: A-673 cell viability (IC50)); under 1 nM in assay [2]. The EC50 in assay [1] (read-out: Splice EC50 (nM) FoxM1 A mRNA increase (exon excluded)) was over 1000 nM.

As to `CN(c1ccc(-c2ccc(-c3ccn(C)c(=O)c3)cc2O)nn1)[C@@H]1C[C@H]2CC[C@@H](C1)N2` [compound 240, 4-(4-(6-(((1R,3s,5S)-8-azabicyclo[3.2.1]octan-3-yl)(methyl)amino)pyridazin-3-yl)-3-hydroxyphenyl)-1-methylpyridin-2(1H)-one], the IC50 in assay [1] (setting [3]) is under 10 nM; in the assay with IKBKAP^Δ20 mRNA it was 201 to 1000 nM; in the assay on A-673 cells (setting [5]), 10 to 100 nM. In addition, the values for the EC50 (in assay [1] (setting [4]); in the assay with IKBKAP^FL mRNA) were under 10 nM and 101 to 350 nM, respectively.

Take `Oc1cc(-n2ccnc2)ccc1-c1ccc(O[C@@H]2C[C@H]3CC[C@@H](C2)N3)nn1` [compound 245, 2-(6-(((1R,3s,5S)-8-azabicyclo[3.2.1]octan-3-yl)oxy)pyridazin-3-yl)-5-(1H-imidazol-1-yl)phenol]: the IC50 in assay [1] (setting [3]) is 101 to 250 nM; in the assay on A-673 cells (setting [5]), 501 to 1000 nM; in assay [2], 30 nM. The EC50 in assay [1] (setting [4]) lay within 10 to 100 nM.

Consider `Oc1cc(-n2nccn2)ccc1-c1ccc(O[C@@H]2C[C@H]3CC[C@@H](C2)N3)nn1` [compound 251, 2-(6-(((1R,3s,5S)-8-azabicyclo[3.2.1]octan-3-yl)oxy)pyridazin-3-yl)-5-(2H-1,2,3-triazol-2-yl)phenol], for which the IC50 in assay [1] (setting [3]) is 101 to 250 nM; in the assay with A-673 cells (setting [5]), 251 to 500 nM; in assay [2], 150 nM. Also, the EC50 in assay [1] (setting [4]) is 10 to 100 nM.

With `Cc1nnnn1-c1ccc(-c2ccc(O[C@@H]3C[C@H]4CC[C@@H](C3)N4)nn2)c(O)c1` [compound 257, 2-(6-(((1R,3s,5S)-8-azabicyclo[3.2.1]octan-3-yl)oxy)pyridazin-3-yl)-5-(5-methyl-1H-tetrazol-1-yl)phenol], the results for the IC50 (in the assay on A-673 cells (setting [5]); in assay [2]) were over 1000 nM and 121 nM, respectively.

Take `Cc1nnn(-c2ccc(-c3ccc(O[C@@H]4C[C@H]5CC[C@@H](C4)N5)nn3)c(O)c2)n1` [compound 258, 2-(6-(((1R,3s,5S)-8-azabicyclo[3.2.1]octan-3-yl)oxy)pyridazin-3-yl)-5-(5-methyl-2H-tetrazol-2-yl)phenol]: the IC50 in assay [1] (setting [3]) was 101 to 250 nM; in the assay with A-673 cells (setting [5]), 251 to 500 nM; in assay [2] it was 149 nM. Moreover, the EC50 in assay [1] (setting [4]) lay in the range of 10 to 100 nM.

Regarding `[2H]C([2H])([2H])n1ncc(-c2ccc(-c3ccc(N(C)[C@@H]4C[C@H]5CC[C@@H](C4)N5)nn3)c(O)c2)cc1=O` [compound 282, 5-(4-(6-(((1R,3s,5S)-8-azabicyclo[3.2.1]octan-3-yl)(methyl)amino)pyridazin-3-yl)-3-hydroxyphenyl)-2-(methyl-d3)pyridazin-3(2H)-one], the values for the IC50 (in assay [1] (setting [3]); in the assay with IKBKAP^Δ20 mRNA; in the assay with A-673 cells (setting [5])) were 10 to 100 nM, 201 to 1000 nM and 10 to 100 nM, respectively. Besides, the EC50 in assay [1] (setting [4]) was under 10 nM; in the assay with IKBKAP^FL mRNA it was 101 to 350 nM.

Compound `COc1cc(-c2ccc(-c3ccc(N(C)[C@@H]4C[C@H]5CCC[C@@H](C4)N5)nn3)c(O)c2)ccn1` [compound 289, 2-(6-(((1R,3s,5S)-9-azabicyclo[3.3.1]nonan-3-yl)(methyl)amino)pyridazin-3-yl)-5-(2-methoxypyridin-4-yl)phenol] yielded an EC50 in the assay on SMN2^FL mRNA of 4 nM. For the same compound, the IC50 in the assay with SMN2^Δ7 mRNA is 4 nM; with A-673 cells (setting [5]), under 10 nM.
